From US8916565B2, “Pyrrolopyrazine-spirocyclic piperidine amides as modulators of ion channels” (priority 2011, dated 2014)

The compounds below were run against human NaV subtype, like NaV 1.7 (Homo sapiens, UniProt Q15858) (assay: E-VIPR optical membrane potential assay with electrical stimulation). Conditions: active against one or more sodium channels; Table 3 does not name the assay or NaV subtype; read-out: Binned Activity Data (IC50).
Format: cell-based

Chain of human NaV subtype, like NaV 1.7 (Q15858 whole entry): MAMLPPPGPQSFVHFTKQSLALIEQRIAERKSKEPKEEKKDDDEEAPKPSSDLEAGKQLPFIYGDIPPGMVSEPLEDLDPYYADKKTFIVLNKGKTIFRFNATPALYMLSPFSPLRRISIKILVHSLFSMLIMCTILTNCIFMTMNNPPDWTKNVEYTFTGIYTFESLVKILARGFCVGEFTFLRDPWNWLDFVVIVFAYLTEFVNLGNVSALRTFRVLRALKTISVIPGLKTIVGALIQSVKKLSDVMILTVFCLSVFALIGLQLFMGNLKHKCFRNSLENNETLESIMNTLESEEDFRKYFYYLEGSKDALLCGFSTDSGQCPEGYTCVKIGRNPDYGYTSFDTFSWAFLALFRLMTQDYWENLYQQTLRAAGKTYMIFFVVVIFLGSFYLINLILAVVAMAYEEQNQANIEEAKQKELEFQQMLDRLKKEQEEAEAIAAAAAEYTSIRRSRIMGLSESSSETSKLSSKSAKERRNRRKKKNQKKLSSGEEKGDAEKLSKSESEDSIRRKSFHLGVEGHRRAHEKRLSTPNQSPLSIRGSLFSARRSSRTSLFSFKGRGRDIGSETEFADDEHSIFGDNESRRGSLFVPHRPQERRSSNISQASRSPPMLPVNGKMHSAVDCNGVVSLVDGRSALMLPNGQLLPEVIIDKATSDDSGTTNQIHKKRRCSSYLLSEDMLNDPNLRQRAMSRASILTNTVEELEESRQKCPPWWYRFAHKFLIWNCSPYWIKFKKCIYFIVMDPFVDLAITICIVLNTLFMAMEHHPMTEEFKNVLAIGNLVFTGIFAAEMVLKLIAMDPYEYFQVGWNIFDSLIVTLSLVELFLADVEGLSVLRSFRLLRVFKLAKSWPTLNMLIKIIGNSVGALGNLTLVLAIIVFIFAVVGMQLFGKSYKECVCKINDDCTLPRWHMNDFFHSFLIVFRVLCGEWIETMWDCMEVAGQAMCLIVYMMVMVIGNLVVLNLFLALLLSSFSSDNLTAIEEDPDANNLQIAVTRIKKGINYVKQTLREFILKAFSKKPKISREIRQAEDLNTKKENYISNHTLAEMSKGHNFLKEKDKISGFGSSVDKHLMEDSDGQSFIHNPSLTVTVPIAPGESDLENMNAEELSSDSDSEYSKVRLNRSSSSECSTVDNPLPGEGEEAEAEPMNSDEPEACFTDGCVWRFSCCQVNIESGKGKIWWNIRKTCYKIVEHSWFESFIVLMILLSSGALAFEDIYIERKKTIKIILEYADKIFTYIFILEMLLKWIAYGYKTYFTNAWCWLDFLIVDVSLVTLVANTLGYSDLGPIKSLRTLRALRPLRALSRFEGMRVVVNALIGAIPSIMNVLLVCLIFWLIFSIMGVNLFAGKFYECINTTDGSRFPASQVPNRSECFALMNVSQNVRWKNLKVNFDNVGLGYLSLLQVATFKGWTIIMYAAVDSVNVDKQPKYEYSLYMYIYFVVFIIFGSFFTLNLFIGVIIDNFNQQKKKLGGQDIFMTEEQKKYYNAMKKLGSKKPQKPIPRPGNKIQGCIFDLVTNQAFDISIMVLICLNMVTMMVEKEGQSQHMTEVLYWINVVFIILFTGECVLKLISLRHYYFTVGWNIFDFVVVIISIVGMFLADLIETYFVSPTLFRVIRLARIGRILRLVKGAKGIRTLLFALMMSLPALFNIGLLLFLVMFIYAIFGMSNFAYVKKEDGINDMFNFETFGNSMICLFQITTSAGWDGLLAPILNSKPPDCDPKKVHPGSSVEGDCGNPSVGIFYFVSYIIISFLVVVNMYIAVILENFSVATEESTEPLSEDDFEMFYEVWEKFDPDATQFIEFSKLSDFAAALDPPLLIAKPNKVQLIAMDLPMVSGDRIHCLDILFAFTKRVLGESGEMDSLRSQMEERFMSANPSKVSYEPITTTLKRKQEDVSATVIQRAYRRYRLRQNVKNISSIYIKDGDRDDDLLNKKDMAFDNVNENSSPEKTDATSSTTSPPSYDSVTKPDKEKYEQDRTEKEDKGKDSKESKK

| IC50 [nM] | SMILES |
| --- | --- |
| ≤ 2000 | CCOc1ccc(C(=O)N2CCC3(CC2)c2c(Cl)cc(C(F)(F)F)n2CCN3C)cc1C [Compound 420] |
| ≤ 2000 | Cc1cc(C(=O)N2CCC3(CC2)NCCn2c(C(F)(F)F)ccc23)ccc1C(C)(C)O [Compound 715] |
| ≤ 2000 | COc1ccc(C(=O)N2CCC3(CC2)c2ccc(C(=O)C4(C)CC4)n2CCN3C)cc1C(F)(F)F [Compound 282] |
| ≤ 2000 | Cc1cc(C(=O)N2CCC3(CC2)c2cccn2CCN3Cc2ccccc2)ccc1OC(C)C [Compound 39] |
| ≤ 2000 | C[C@H]1Cn2c(C(=O)C(F)(F)F)ccc2C2(CCN(C(=O)c3ccc(OCC(F)(F)F)cc3)CC2)N1C [Compound 463] |
| ≤ 2000 | COc1ccc(C(=O)N2CCC3(CC2)c2ccc(C(=O)C(F)(F)F)n2C(C)CN3C)nc1C (centres unmarked) [Compound 15] |
| > 5000 | CN1CCn2c(C(F)(F)F)ccc2C12CCN(C(=O)c1cnn3c(C(F)F)cc(C4CC4)nc13)CC2 [Compound 21] |
| ≤ 2000 | COc1cc(C(=O)N2CCC3(CC2)c2ccc(C(=O)C(F)(F)F)n2CCN3C)ccc1OCCOC(F)(F)F [Compound 360] |
| ≤ 2000 | CC(C)CCOc1ccc(C(=O)N2CCC3(CC2)c2ccc(C(=O)C(F)(F)F)n2CCN3C)cc1 [Compound 143] |
| > 5000 | Cc1cc(C(=O)N2CCC3(CC2)c2ccc(S(C)(=O)=O)n2CCN3C)ccc1OC(C)C [Compound 542] |
| ≤ 2000 | CC1(C)Cn2c(C(=O)C(F)(F)F)ccc2C2(CCN(C(=O)c3ccc(C4CCCCC4)cc3)CC2)N1 [Compound 563] |
| ≤ 2000 | Cc1cc(C(=O)N2CCC3(CC2)c2c(F)cc(C(F)(F)F)n2CCN3C)ccc1OCC(C)(C)O [Compound 217] |
| ≤ 2000 | Cc1nc(C(=O)N2CCC3(CC2)c2c(F)cc(C(F)(F)F)n2CCN3C)ccc1OC(C)C [Compound 206] |
| ≤ 2000 | CN1CCn2c(C(=O)C(F)(F)F)ccc2C12CCN(C(=O)c1ccc(C(C)(C)C)cc1)CC2 [Compound 12] |
| > 5000 | COc1ccc(C(=O)N2CCC3(CC2)c2ccc(C(F)(F)F)n2CCN3C)cc1 [Compound 351] |
| ≤ 2000 | CC(C)CCOc1ccc(C(=O)N2CCC3(CC2)c2ccc(C(=O)C(F)(F)F)n2CCN3C)nc1 [Compound 438] |
| ≤ 2000 | CC1(C)Cn2c(C(=O)C(F)(F)F)ccc2C2(CCN(C(=O)c3ccc(-c4ccccc4)cn3)CC2)N1 [Compound 707] |
| ≤ 2000 | CC(C)CCOc1ccc(C(=O)N2CCC3(CC2)c2ccc(C(=O)C(C)(C)C)n2CCN3C)cc1 [Compound 661] |
| ≤ 2000 | CC(=O)c1ccc2n1CC(C)(C)NC21CCN(C(=O)c2ccc(OC(C)C)cc2F)CC1 [Compound 286] |
| ≤ 2000 | Cc1cc(C(=O)N2CCC3(CC2)c2ccc(C(F)(F)F)n2CCN3C2CC2)ccc1OC(C)C [Compound 333] |
| ≤ 2000 | CN1CCn2c(Cl)ccc2C12CCN(C(=O)c1ccc(C(C)(C)O)c(F)c1)CC2 [Compound 387] |
| ≤ 2000 | CC(=O)c1ccc2n1CCN(C)C21CCN(C(=O)c2ccc(OCC(C)(C)C)cc2)CC1 [Compound 462] |
| ≤ 2000 | COc1cc(C(=O)N2CCC3(CC2)c2c(F)cc(C(F)(F)F)n2CCN3C)ccc1OCC(C)C [Compound 188] |
| ≤ 2000 | CC(C)Oc1ccc(C(=O)N2CCC3(CC2)c2ccc(C(F)(F)F)n2C[C@H](C)N3C)c(F)c1 [Compound 152] |
| 2000 to 5000 | CCOc1ccc(C(=O)N2CCC3(CC2)c2ccc(C(=O)C(F)(F)F)n2CCN3C)cc1F [Compound 446] |
| ≤ 2000 | Cc1cc(C(=O)N2CCC3(CC2)N[C@@H](C)Cn2c(C(F)(F)F)ccc23)ccc1OC(C)C [Compound 495] |
